Measurements published in ChEMBL document CHEMBL1201862, “PubChem BioAssay data set” (2004).
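These data come from cells grown in 96-well plates and exposed to compound for 48 hours at five concentrations. GI50 marks 50% less growth.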 Active and inactive are the calls of the source. Cut-off read from the data, not from the text of the source: active = GI50 up to about 1.1 µM and inactive = higher.

Tests used:
Test in all cases: growth of human tumour cells (NCI), 48 h
HCT-15 = system: HCT-15
Malme-3M = system: Malme-3M
UACC-62 = system: UACC-62
Hs-578T = system: Hs-578T
MOLT-4 = system: MOLT-4
NCI/ADR-RES = system: NCI/ADR-RES
HCT-116 = system: HCT-116
EKVX = system: EKVX
SN12C = system: SN12C
OVCAR-3 = system: OVCAR-3
BT-549 = system: BT-549
UO-31 = system: UO-31
HCC 2998 = system: HCC 2998
OVCAR-5 = system: OVCAR-5
MDA-MB-435 = system: MDA-MB-435
K562 = system: K562
HOP-62 = system: HOP-62
NCI-H460 = system: NCI-H460
SK-MEL-28 = system: SK-MEL-28
LOX IMVI = system: LOX IMVI

Measured: GI50

O=C(O)c1ccc(N/C(=C(/C(Cl)=C(Cl)Cl)[N+](=O)[O-])n2nnc3ccccc32)cc1
inactive: Malme-3M > 100 µM | UACC-62 > 100 µM | Hs-578T > 100 µM | MOLT-4 > 100 µM | NCI/ADR-RES > 100 µM | HCT-116 > 100 µM | EKVX > 100 µM | SN12C > 100 µM | OVCAR-3 > 100 µM | BT-549 > 100 µM | UO-31 > 100 µM | HCC 2998 > 100 µM | OVCAR-5 > 100 µM | MDA-MB-435 > 100 µM | K562 > 100 µM | HOP-62 > 100 µM | NCI-H460 > 100 µM | SK-MEL-28 > 100 µM
> 100 µM: HCT-15

Cc1cc(S(=O)(=O)Nc2nc3ccccc3[nH]2)c(S)cc1Cl
inactive: UACC-62 79.4 µM | Hs-578T 70 µM | MOLT-4 30.4 µM | NCI/ADR-RES > 100 µM | HCT-116 22.4 µM | EKVX 53.6 µM | SN12C > 100 µM | OVCAR-3 49.2 µM | BT-549 > 100 µM | UO-31 > 100 µM | HCC 2998 98.9 µM | LOX IMVI 19.3 µM | OVCAR-5 > 100 µM | MDA-MB-435 49.8 µM | K562 48 µM | HOP-62 39.4 µM | NCI-H460 32.7 µM | SK-MEL-28 27.4 µM
> 100 µM: HCT-15

COc1ccc(/C=C2\N=C(c3ccccc3)N(C3Nc4cc5c(cc4S3)NC(N3C(=O)/C(=C/c4ccc(OC)cc4)N=C3c3ccccc3)S5)C2=O)cc1 (stereo unspecified)
38.5 µM: HCT-15
inactive: Hs-578T 48.5 µM | MOLT-4 23.6 µM | NCI/ADR-RES 19.2 µM | HCT-116 42.3 µM | EKVX 16.7 µM | OVCAR-3 43.6 µM | BT-549 23.3 µM | UO-31 > 100 µM | HCC 2998 30.1 µM | LOX IMVI 37.3 µM | OVCAR-5 > 100 µM | MDA-MB-435 56.6 µM | K562 58.2 µM | HOP-62 41.2 µM | NCI-H460 12.7 µM | SK-MEL-28 > 100 µM

O=c1c2cc(I)ccc2nc(SCc2nncs2)n1Cc1ccccc1
50.2 µM: HCT-15
inactive: UACC-62 13.6 µM | Hs-578T 16.3 µM | MOLT-4 8.3 µM | NCI/ADR-RES > 100 µM | HCT-116 11.6 µM | EKVX 7 µM | SN12C 23.9 µM | OVCAR-3 12.3 µM | BT-549 > 100 µM | UO-31 1.17 µM | HCC 2998 16.4 µM | LOX IMVI 29.5 µM | OVCAR-5 99.5 µM | MDA-MB-435 19.2 µM | K562 16.7 µM | HOP-62 20.3 µM | NCI-H460 7.62 µM | SK-MEL-28 90.2 µM

O=[N+]([O-])C(=C1NCCN1)/C(Cl)=C(/Cl)N1CCOCC1
> 100 µM: HCT-15
inactive: Malme-3M > 100 µM | UACC-62 > 100 µM | Hs-578T > 100 µM | MOLT-4 > 100 µM | NCI/ADR-RES > 100 µM | HCT-116 > 100 µM | EKVX > 100 µM | SN12C > 100 µM | OVCAR-3 > 100 µM | BT-549 > 100 µM | UO-31 > 100 µM | HCC 2998 > 100 µM | OVCAR-5 > 100 µM | MDA-MB-435 > 100 µM | K562 > 100 µM | HOP-62 > 100 µM | NCI-H460 > 100 µM | SK-MEL-28 > 100 µM

COC(=O)C1CCC(=S)N1C(=O)OCc1ccccc1 (stereo unspecified)
92.7 µM: HCT-15
inactive: Malme-3M > 100 µM | UACC-62 > 100 µM | Hs-578T 49.4 µM | MOLT-4 > 100 µM | NCI/ADR-RES > 100 µM | HCT-116 83.9 µM | EKVX 49 µM | OVCAR-3 78.3 µM | BT-549 > 100 µM | UO-31 95.7 µM | HCC 2998 62.1 µM | OVCAR-5 > 100 µM | MDA-MB-435 > 100 µM | K562 > 100 µM | HOP-62 > 100 µM | NCI-H460 39.5 µM | SK-MEL-28 > 100 µM
